# Measured values as given in PMC9389804 (Journal of Hematology & Oncology, 2022).
# Values joined by “and” are separate entries in the source; they are usually repeats but may differ in a detail not shown here. Equal values may be shown once.
# Assay: safety assessments (adverse events, NCI CTCAE)
# Details: for Treatment-related cardiovascular events: any grade
# [1] = median follow-up of nearly 3 years
# [2] = nonhematologic TRAE, all 165 patients
# [3] = treatment-related CVE G 3/4, Accelerated phase n=38
# [4] = treatment-related CVE G 3/4, Chronic phase n=127
# [5] = treatment-related CVE G 3/4, Total n=165
# [6] = treatment-related CVE any grade, Accelerated phase n=38
# [7] = treatment-related CVE any grade, Chronic phase n=127
# [8] = treatment-related CVE any grade, Total n=165
structure (smiles),measurement,setting,value
Cc1ccc(C(=O)Nc2ccc(CN3CCN(C)CC3)c(C(F)(F)F)c2)cc1C#Cc1cnc2[nH]ncc2c1 [olverembatinib],Hematologic,"TRAE any grades, Total n=165",138 (83.6) n (%)
same,Hyperbilirubinemia,"TRAE any grades, Total n=165",69 (41.8) n (%)
same,Hyperglycemia,"TRAE any grades, Total n=165",43 (26.1) n (%)
same,Hypertriglyceridemia,"TRAE any grades, Total n=165",95 (57.6) n (%)
same,Hypoalbuminemia,"TRAE any grades, Total n=165",26 (15.8) n (%)
same,Hypocalcemia,"TRAE any grades, Total n=165",64 (38.8) n (%)
same,Hypokalemia,"TRAE any grades, Total n=165",42 (25.5) n (%)
same,Hyponatremia,"TRAE any grades, Total n=165",38 (23.0) n (%)
same,Increased alanine aminotransferase,"TRAE any grades, Total n=165",59 (35.8) n (%)
same,Increased alkaline phosphatase,"TRAE any grades, Total n=165",21 (12.7) n (%)
same,Increased aspartate aminotransferase,"TRAE any grades, Total n=165",59 (35.8) n (%)
same,Increased creatine phosphokinase,"TRAE any grades, Total n=165",48 (29.1) n (%)
same,Increased γ-glutamyl transferase,"TRAE any grades, Total n=165",47 (28.5) n (%)
same,Leukopenia,"TRAE any grades, Total n=165",56 (33.9) n (%)
same,Myalgia,"TRAE any grades, Total n=165",31 (18.8) n (%)
same,Neutropenia,"TRAE any grades, Total n=165",26 (15.8) n (%)
same,Nonhematologic,"TRAE any grades, Total n=165",165 (100.0) n (%)
same,Pain in extremity,"TRAE any grades, Total n=165",21 (12.7) n (%)
same,Proteinuria,"TRAE any grades, Total n=165",84 (50.9) n (%)
same,Pyrexia,"TRAE any grades, Total n=165",30 (18.2) n (%)
same,Rash,"TRAE any grades, Total n=165",27 (16.4) n (%)
same,Sinus tachycardia,"TRAE any grades, Total n=165",30 (18.2) n (%)
same,Skin pigmentation,"TRAE any grades, Total n=165",139 (84.2%) n (%) and 139 (84.2) n (%)
same,Thrombocytopenia,"TRAE any grades, Total n=165",126 (76.4) n (%)
same,Treatment-related adverse events,"TRAE any grades, Total n=165",165 (100.0) n (%)
same,Adverse events resulting in dose interruption,Total n=165,86 (52.1%) n (%) and 86 (52.1) n (%)
same,Adverse events resulting in dose reduction,Total n=165,50 (30.3%) n (%) and 50 (30.3) n (%)
same,Adverse events resulting in treatment discontinuation,Total n=165,13 (7.9) n (%)
same,severe thrombocytopenia leading to dose reduction,all 165 patients,15.8%
same,Treatment-related cardiovascular events,Accelerated phase n=38,9 (23.7) n (%)
same,Treatment-related cardiovascular events,Chronic phase n=127,44 (34.6) n (%)
same,Treatment-related cardiovascular events,Total n=165,53 (32.1%) n (%) and 53 (32.1) n (%)
same,median time to temporary treatment suspension or dose reduction,for SAEs,5 months
same,patients requiring temporary treatment suspension or dose reduction,for SAEs,75 (46.0%) n (%)
same,"myelosuppression, median duration",in vivo,36 (7–718) days
same,"myelosuppression, median onset time",in vivo,28 (4–676) days
same,patients in whom CVEs were grade 1 or 2,in vivo,88.5%
same,patients who received platelet transfusions,in vivo,11.5%
same,patients who received red blood cell transfusions,in vivo,9.7%
same,median duration of treatment interruptions,interruptions due to AEs,56 days
same,median number of treatment interruptions,interruptions due to AEs,2
same,incidence of arterial occlusive and venous thrombotic events,[1],5.0%
same,olverembatinib-related CVEs,[1],32.0%
same,median time to onset of nonhematologic TRAEs,most frequent nonhematologic TRAEs,70 days
same,Hyperbilirubinemia,[2],41.8%
same,Hypertriglyceridemia,[2],57.6%
same,Hypocalcemia,[2],38.8%
same,Proteinuria,[2],50.9%
same,elevated liver transaminases,[2],35.8%
same,patients with Fridericia-corrected QT interval exceeding 500 ms on treatment,patients with CVEs,None
same,renal function according to estimated glomerular filtration rate,patients with persistent proteinuria,did not observe decreased renal function
same,Anemia,serious AE (SAE),6.0%
same,Atrial fibrillation,serious AE (SAE),2.0%
same,Pneumonia,serious AE (SAE),3.0%
same,Pyrexia,serious AE (SAE),2.0%
same,Thrombocytopenia,serious AE (SAE),9.0%
same,"acute MI, cholelithiasis, pericardial effusion, upper-respiratory-tract infection, and urinary-tract infection (each)",serious AE (SAE),1%
same,Acute coronary syndrome,[3],0 n (%)
same,Acute myocardial infarction,[3],0 n (%)
same,Angina pectoris,[3],0 n (%)
same,Arrhythmia,[3],0 n (%)
same,Arteriosclerosis coronary artery,[3],0 n (%)
same,Atrial fibrillation,[3],1 (2.6) n (%)
same,Atrial tachycardia,[3],0 n (%)
same,Cardiomegaly,[3],0 n (%)
same,Cerebral infarction,[3],0 n (%)
same,Lacunar infarction,[3],0 n (%)
same,Palpitations,[3],0 n (%)
same,Pericardial effusion,[3],1 (2.6) n (%)
same,Retinal-vein occlusion,[3],0 n (%)
same,Supraventricular extrasystoles,[3],0 n (%)
same,Ventricular extrasystoles,[3],0 n (%)
same,Acute coronary syndrome,[4],1 (0.8) n (%)
same,Acute myocardial infarction,[4],1 (0.8) n (%)
same,Angina pectoris,[4],0 n (%)
same,Arrhythmia,[4],1 (0.8) n (%)
same,Arteriosclerosis coronary artery,[4],1 (0.8) n (%)
same,Atrial fibrillation,[4],1 (0.8) n (%)
same,Atrial tachycardia,[4],0 n (%)
same,Cardiomegaly,[4],0 n (%)
same,Cerebral infarction,[4],1 (0.8) n (%)
same,Lacunar infarction,[4],1 (0.8) n (%)
same,Palpitations,[4],0 n (%)
same,Pericardial effusion,[4],1 (0.8) n (%)
same,Retinal-vein occlusion,[4],2 (1.6) n (%)
same,Supraventricular extrasystoles,[4],0 n (%)
same,Ventricular extrasystoles,[4],0 n (%)
same,Acute coronary syndrome,[5],1 (0.6) n (%)
same,Acute myocardial infarction,[5],1 (0.6) n (%)
same,Angina pectoris,[5],0 n (%)
same,Arrhythmia,[5],1 (0.6) n (%)
same,Arteriosclerosis coronary artery,[5],1 (0.6) n (%)
same,Atrial fibrillation,[5],2 (1.2) n (%)
same,Atrial tachycardia,[5],0 n (%)
same,Cardiomegaly,[5],0 n (%)
same,Cerebral infarction,[5],1 (0.6) n (%)
same,Lacunar infarction,[5],1 (0.6) n (%)
same,Palpitations,[5],0 n (%)
same,Pericardial effusion,[5],2 (1.2) n (%)
same,Retinal-vein occlusion,[5],2 (1.2) n (%)
same,Supraventricular extrasystoles,[5],0 n (%)
same,Ventricular extrasystoles,[5],0 n (%)
same,Acute coronary syndrome,[6],0 n (%)
same,Acute myocardial infarction,[6],0 n (%)
same,Angina pectoris,[6],0 n (%)
same,Arrhythmia,[6],0 n (%)
same,Arteriosclerosis coronary artery,[6],0 n (%)
same,Atrial fibrillation,[6],3 (7.9) n (%)
same,Atrial tachycardia,[6],0 n (%)
same,Cardiomegaly,[6],0 n (%)
same,Cerebral infarction,[6],0 n (%)
same,Lacunar infarction,[6],0 n (%)
same,Palpitations,[6],1 (2.6) n (%)
same,Pericardial effusion,[6],3 (7.9) n (%)
same,Retinal-vein occlusion,[6],0 n (%)
same,Supraventricular extrasystoles,[6],2 (5.3) n (%)
same,Ventricular extrasystoles,[6],0 n (%)
same,Acute coronary syndrome,[7],1 (0.8) n (%)
same,Acute myocardial infarction,[7],1 (0.8) n (%)
same,Angina pectoris,[7],1 (0.8) n (%)
same,Arrhythmia,[7],1 (0.8) n (%)
same,Arteriosclerosis coronary artery,[7],1 (0.8) n (%)
same,Atrial fibrillation,[7],2 (1.6) n (%)
same,Atrial tachycardia,[7],1 (0.8) n (%)
same,Cardiomegaly,[7],1 (0.8) n (%)
same,Cerebral infarction,[7],1 (0.8) n (%)
same,Lacunar infarction,[7],1 (0.8) n (%)
same,Palpitations,[7],1 (0.8) n (%)
same,Pericardial effusion,[7],11 (8.7) n (%)
same,Retinal-vein occlusion,[7],3 (2.4) n (%)
same,Supraventricular extrasystoles,[7],3 (2.4) n (%)
same,Ventricular extrasystoles,[7],7 (5.5) n (%)
same,Acute coronary syndrome,[8],1 (0.6) n (%)
same,Acute myocardial infarction,[8],1 (0.6) n (%)
same,Angina pectoris,[8],1 (0.6) n (%)
same,Arrhythmia,[8],1 (0.6) n (%)
same,Arteriosclerosis coronary artery,[8],1 (0.6) n (%)
same,Atrial fibrillation,[8],5 (3.0) n (%)
same,Atrial tachycardia,[8],1 (0.6) n (%)
same,Cardiomegaly,[8],1 (0.6) n (%)
same,Cerebral infarction,[8],1 (0.6) n (%)
same,Lacunar infarction,[8],1 (0.6) n (%)
same,Palpitations,[8],2 (1.2) n (%)
same,Pericardial effusion,[8],14 (8.5) n (%)
same,Retinal-vein occlusion,[8],3 (1.8) n (%)
same,Supraventricular extrasystoles,[8],5 (3.0) n (%)
same,Ventricular extrasystoles,[8],7 (4.2) n (%)
